Literature values, collected in patent publication US9131678B1, “Ultraviolet strategy for avian repellency” (The United States of America, as represented by the …, priority 2009, dated 2015).

What was measured:
Blackbirds = settings: rice seeds treated with 10,000 ppm caffeine, field conditions; >80% of untreated rice seeds consumed
[1] = test system: male red-winged blackbirds; settings: 2,500 ppm caffeine, male red-winged blackbirds in captivity

Cn1c(=O)c2c(ncn2C)n(C)c1=O [caffeine]
rice seeds consumed (Blackbirds): < 10%
reduction of rice consumption [1]: 76%
